{
  "source": "patent US20190210996A1",
  "about": "“NOVEL COMPOUNDS” (GLAXOSMITHKLINE INTELLECTUAL PROPERTY DEVELOPMENT LIMITED, priority 2016, published 2019)",
  "assay_type_in_all_cases": "cell-based",
  "key": {"AAK1": {"target": "T1, AAK1 (Homo sapiens, UniProt Q2M2I8)", "T1 construct": "endogenous in cells; host or cells: THP-1", "T1 sequence (Q2M2I8 whole entry)": "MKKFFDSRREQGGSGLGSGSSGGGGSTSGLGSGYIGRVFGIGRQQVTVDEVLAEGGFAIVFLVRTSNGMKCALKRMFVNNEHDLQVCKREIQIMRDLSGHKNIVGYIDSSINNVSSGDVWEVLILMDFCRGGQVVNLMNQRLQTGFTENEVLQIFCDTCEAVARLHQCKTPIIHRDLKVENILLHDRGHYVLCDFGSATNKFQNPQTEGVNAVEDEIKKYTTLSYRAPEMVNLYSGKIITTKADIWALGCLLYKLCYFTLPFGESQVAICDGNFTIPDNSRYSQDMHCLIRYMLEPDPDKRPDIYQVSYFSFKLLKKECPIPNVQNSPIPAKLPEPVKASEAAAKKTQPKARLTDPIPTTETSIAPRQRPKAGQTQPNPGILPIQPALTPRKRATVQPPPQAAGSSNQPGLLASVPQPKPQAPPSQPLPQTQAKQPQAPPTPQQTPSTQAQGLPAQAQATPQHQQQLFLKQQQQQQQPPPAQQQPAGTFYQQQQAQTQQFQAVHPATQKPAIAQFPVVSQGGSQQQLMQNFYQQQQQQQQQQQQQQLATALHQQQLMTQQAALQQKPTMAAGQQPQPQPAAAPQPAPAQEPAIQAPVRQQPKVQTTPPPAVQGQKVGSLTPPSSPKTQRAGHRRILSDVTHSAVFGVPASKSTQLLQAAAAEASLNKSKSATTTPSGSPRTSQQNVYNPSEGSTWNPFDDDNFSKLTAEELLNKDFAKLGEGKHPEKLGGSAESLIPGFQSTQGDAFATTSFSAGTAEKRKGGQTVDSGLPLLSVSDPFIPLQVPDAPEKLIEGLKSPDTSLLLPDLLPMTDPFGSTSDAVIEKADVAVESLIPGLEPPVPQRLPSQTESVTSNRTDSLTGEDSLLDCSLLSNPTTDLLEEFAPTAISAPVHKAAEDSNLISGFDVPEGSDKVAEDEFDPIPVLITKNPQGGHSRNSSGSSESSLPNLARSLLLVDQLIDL", "assay": "Expression proteomics in THP-1 cells: AAK1 protein level", "conditions": "AAK1, THP-1 cells", "method": "(§1) THP-1 cells were seeded at a concentration of 3×10^6 cells in T175 flasks with 60 mL growth medium (RPMI1640+10% FBS). […] of a 10× compound solution prepared in growth medium (DMSO), CEREBLON_PROTAC) was added and the cells were treated for the indicated time points (6 or 24 h) at 37° C., 5% CO2. For harvesting the cells were collected into falcon tubes on ice, centrifuged and washed twice in cold PBS (Life technologies). After the last washing step the supernatant was removed and the pellets were snap-frozen in liquid N2 and stored at −80° C. and lysed in 2% SDS for 3 min at 95° C. in a thermomixer (Thermo Fisher Scientific), followed by digestion of DNA with Benzonase at 37° C. for 1.5 h. Lysate was cleared by centrifugation an protein concentration in supernatant was determined by BCA assay.\n(§2) Leukemia 25, 89-100 (2011).\n(§3) Samples were dried in vacuo and resuspended in 0.05% trifluoroacetic acid in water. Of the sample, 50% was injected into an Ultimate3000 nanoRLSC (Dionex, Sunnyvale, Calif.) coupled to a Q Exactive HF (Thermo Fisher Scientific). Peptides were trapped on a 5 mm×300 μm C18 column (Pepmap100, 5 μm, 300 Å, Thermo Fisher Scientific) in water with 0.05% TFA at 60° C. Separation was performed on custom 50 cm×[…] (ID) reversed-phase columns (Reprosil) at 55° C. Gradient elution was performed from 2% acetonitrile to 40% acetonitrile in 0.1% formic acid and 3.5% DMSO over 2 hours. Samples were online injected into Q-Exactive HF mass spectrometers operating with a data-dependent top 10 method. MS spectra were acquired by using 60.000 resolution and an ion target of 3×10^6. Higher energy collisional dissociation (HCD) scans were performed with 35% NCE at 30.000 resolution (at m/z 200), and the ion target settings was set to 2×10^5 so as to avoid coalescence (Werner, T. et al. Ion Coalescence of Neutron Encoded TMT 10-Plex Reporter Ions. Anal. Chem. 86, 3594-3601 (2014).\n(§4) The first search was performed with 30 parts per million mass tolerance for peptide precursors and 30 mD (HCD) mass tolerance for fragment ions followed by a final search using recalibrated data with a 10 parts per million mass tolerance for peptide precursors and 20 mD (HCD) mass tolerance for fragment ions. Carbamidomethylation of cysteine residues and TMT modification of lysine residues were set as fixed modifications and methionine oxidation, and N-terminal acetylation of proteins and TMT modification of peptide N-termini were set as variable modifications. […]\n(§5) Nat Biotech 29, 255-265 (2011). this measure is referred to as ion area Savitski, M. M. et al. Delayed Fragmentation and Optimized Isolation Width Settings for Improvement of Protein Identification and Accuracy of Isobaric Mass Tag Quantification on Orbitrap-Type Mass Spectrometers. […]"}, "BTK": {"target": "T2, BTK (Homo sapiens, UniProt Q06187)", "T2 construct": "endogenous in cells; host or cells: THP-1", "T2 sequence (Q06187 whole entry)": "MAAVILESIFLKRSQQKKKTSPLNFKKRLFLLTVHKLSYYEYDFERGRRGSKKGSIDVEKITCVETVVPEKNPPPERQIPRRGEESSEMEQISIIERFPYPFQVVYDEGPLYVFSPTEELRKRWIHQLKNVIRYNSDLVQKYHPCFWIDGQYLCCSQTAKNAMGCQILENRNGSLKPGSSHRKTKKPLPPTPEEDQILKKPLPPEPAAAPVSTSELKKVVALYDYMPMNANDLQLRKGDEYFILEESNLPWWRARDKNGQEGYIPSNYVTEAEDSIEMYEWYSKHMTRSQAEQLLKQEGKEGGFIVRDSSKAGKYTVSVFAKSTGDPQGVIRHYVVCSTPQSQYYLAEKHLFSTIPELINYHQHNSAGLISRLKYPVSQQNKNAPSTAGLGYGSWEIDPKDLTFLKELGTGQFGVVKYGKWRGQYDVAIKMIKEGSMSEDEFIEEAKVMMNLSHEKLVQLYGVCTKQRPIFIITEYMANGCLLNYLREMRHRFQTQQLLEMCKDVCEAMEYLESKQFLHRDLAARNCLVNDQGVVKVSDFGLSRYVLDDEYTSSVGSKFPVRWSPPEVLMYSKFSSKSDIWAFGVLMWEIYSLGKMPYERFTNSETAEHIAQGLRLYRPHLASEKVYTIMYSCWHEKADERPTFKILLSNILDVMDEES", "assay": "Expression proteomics in THP-1 cells: BTK protein level", "method": "as §1, §2, §3, §4, §5"}, "IRAK3": {"target": "T3, IRAK3 (Homo sapiens, UniProt Q9Y616)", "T3 construct": "endogenous in cells; host or cells: THP-1", "T3 sequence (Q9Y616 1-596)": "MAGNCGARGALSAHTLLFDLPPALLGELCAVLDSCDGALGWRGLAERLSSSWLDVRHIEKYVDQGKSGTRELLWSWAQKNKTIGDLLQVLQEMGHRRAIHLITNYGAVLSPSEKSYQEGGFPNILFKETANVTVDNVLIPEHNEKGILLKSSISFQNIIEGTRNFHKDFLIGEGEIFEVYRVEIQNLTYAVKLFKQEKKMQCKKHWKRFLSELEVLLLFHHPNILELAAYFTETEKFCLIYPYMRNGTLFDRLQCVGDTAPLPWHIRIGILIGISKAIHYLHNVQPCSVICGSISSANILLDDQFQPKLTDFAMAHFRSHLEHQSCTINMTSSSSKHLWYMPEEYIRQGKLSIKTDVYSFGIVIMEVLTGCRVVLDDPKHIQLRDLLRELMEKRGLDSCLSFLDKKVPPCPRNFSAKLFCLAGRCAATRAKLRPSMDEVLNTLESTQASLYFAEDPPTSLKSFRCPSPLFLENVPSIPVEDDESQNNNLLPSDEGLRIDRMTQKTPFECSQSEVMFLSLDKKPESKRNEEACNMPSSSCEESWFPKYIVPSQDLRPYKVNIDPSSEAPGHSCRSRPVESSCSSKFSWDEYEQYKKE", "assay": "Expression proteomics in THP-1 cells: IRAK3 protein level", "conditions": "IRAK3, THP-1 cells", "method": "as §1, §2, §3, §4, §5"}, "PRKAA1": {"target": "T4, PRKAA1 (Homo sapiens, UniProt Q13131)", "T4 construct": "endogenous in cells; host or cells: THP-1", "T4 sequence (Q13131 whole entry)": "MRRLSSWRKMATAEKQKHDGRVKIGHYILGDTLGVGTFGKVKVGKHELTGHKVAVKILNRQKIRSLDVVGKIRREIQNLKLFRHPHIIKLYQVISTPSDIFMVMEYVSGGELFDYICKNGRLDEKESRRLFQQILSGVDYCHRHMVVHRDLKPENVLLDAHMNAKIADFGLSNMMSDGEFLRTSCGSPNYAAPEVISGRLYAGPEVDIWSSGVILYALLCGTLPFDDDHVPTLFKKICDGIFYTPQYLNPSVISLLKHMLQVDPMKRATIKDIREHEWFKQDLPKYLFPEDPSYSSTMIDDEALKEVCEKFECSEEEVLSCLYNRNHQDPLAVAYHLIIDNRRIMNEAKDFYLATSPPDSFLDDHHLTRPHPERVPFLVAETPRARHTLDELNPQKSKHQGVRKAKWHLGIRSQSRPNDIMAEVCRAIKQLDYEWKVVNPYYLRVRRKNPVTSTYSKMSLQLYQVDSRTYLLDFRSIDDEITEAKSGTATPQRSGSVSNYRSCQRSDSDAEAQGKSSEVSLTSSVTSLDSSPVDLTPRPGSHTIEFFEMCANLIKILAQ", "T4 sequence (Q9Y478 2-270 partner limits assumed)": "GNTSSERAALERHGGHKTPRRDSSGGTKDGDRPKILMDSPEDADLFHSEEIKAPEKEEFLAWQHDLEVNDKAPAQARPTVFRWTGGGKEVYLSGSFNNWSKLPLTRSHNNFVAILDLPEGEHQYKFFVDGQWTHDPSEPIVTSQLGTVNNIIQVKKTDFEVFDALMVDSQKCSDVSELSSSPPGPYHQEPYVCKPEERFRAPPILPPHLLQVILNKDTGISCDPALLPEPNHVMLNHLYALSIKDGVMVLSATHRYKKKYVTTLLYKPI", "T4 sequence (P54619 whole entry partner)": "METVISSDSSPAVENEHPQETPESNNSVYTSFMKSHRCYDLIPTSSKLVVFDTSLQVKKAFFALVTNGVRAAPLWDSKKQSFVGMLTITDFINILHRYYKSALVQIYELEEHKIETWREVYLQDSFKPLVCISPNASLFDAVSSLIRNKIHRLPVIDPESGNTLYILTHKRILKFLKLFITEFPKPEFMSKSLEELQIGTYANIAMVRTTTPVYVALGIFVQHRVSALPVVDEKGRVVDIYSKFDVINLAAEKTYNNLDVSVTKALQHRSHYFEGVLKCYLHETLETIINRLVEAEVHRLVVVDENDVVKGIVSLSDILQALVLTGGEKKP", "assay": "Expression proteomics in THP-1 cells: PRKAA1 protein level", "conditions": "PRKAA1, THP-1 cells", "method": "as §1, §2, §3, §4, §5"}},
  "data": [
    {"smiles": "CNC(=O)c1ccccc1Nc1nc(Nc2ccc(N3CCN(CCOCCOCCOCCOCC(=O)Nc4cccc5c4CN(C4CCC(=O)NC4=O)C5=O)CC3)cc2)ncc1Cl.O=CO", "note": "(stereo not shown) [CEREBLON_PROTAC, 14-(4-(4-((5-Chloro-4-((2-(methylcarbamoyl)phenyl)amino)pyrimidin-2-yl)amino)phenyl)piperazin-1-yl)-N-(2-(2,6-dioxopiperidin-3-yl)-1-oxoisoindolin-4-yl)-3,6,9,12-tetraoxatetradecan-1-amide formate]", "values": [
      {"measurement": "log2 rel. fc. to vehicle control", "setting": "AAK1; 24 h 0.1 μM, n = 1", "value": "−2.34"},
      {"measurement": "log2 rel. fc. to vehicle control", "setting": "AAK1; 24 h 0.1 μM, n = 2", "value": "−2.12"},
      {"measurement": "log2 rel. fc. to vehicle control", "setting": "AAK1; 24 h 1 μM, n = 1", "value": "−2.42"},
      {"measurement": "log2 rel. fc. to vehicle control", "setting": "AAK1; 24 h 1 μM, n = 2", "value": "−2.56"},
      {"measurement": "log2 rel. fc. to vehicle control", "setting": "BTK; 24 h 0.1 μM, n = 1", "value": "−1.65"},
      {"measurement": "log2 rel. fc. to vehicle control", "setting": "BTK; 24 h 0.1 μM, n = 2", "value": "−1.67"},
      {"measurement": "log2 rel. fc. to vehicle control", "setting": "BTK; 24 h 1 μM, n = 1", "value": "−2.02"},
      {"measurement": "log2 rel. fc. to vehicle control", "setting": "BTK; 24 h 1 μM, n = 2", "value": "−1.86"},
      {"measurement": "log2 rel. fc. to vehicle control", "setting": "IRAK3; 24 h 0.1 μM, n = 1", "value": "−2.25"},
      {"measurement": "log2 rel. fc. to vehicle control", "setting": "IRAK3; 24 h 0.1 μM, n = 2", "value": "−1.82"},
      {"measurement": "log2 rel. fc. to vehicle control", "setting": "IRAK3; 24 h 1 μM, n = 1", "value": "−1.65"},
      {"measurement": "log2 rel. fc. to vehicle control", "setting": "IRAK3; 24 h 1 μM, n = 2", "value": "−1.86"},
      {"measurement": "log2 rel. fc. to vehicle control", "setting": "PRKAA1; 24 h 0.1 μM, n = 1", "value": "−0.38"},
      {"measurement": "log2 rel. fc. to vehicle control", "setting": "PRKAA1; 24 h 0.1 μM, n = 2", "value": "−0.74"},
      {"measurement": "log2 rel. fc. to vehicle control", "setting": "PRKAA1; 24 h 1 μM, n = 1", "value": "−1.06"},
      {"measurement": "log2 rel. fc. to vehicle control", "setting": "PRKAA1; 24 h 1 μM, n = 2", "value": "−1.35"}
    ]}
  ]
}
